Several values for one entry are separate records, joined by “and”; a condition that tells them apart may be missing. Identical values can stand only once. ± gives the expanded uncertainty stated by the source.
Conditions: Liquid, Closed cell (Static) method

SMILES | vapor or sublimation pressure (318.34 K) | vapor or sublimation pressure (346.96 K) | vapor or sublimation pressure (318.35 K) | vapor or sublimation pressure (346.14 K) | vapor or sublimation pressure (347.06 K) | vapor or sublimation pressure (346.97 K) | vapor or sublimation pressure (347.07 K)
C/C=C/C [(E)-2-butene] | 423.5 ± 1.6 kPa | – | – | – | 868.5 ± 2.8 kPa | – | –
CCCC [butane] | – | – | 437.5 ± 1.6 kPa | – | – | 881.7 ± 2.8 kPa | –
C1CCSC1 [tetrahydrothiophene] | 7.3 ± 0.8 kPa | – | 6.9 ± 0.8 kPa and 6.7 ± 0.8 kPa | 21.4 ± 0.8 kPa | – | 22.2 ± 0.8 kPa and 22.5 ± 0.8 kPa | 22.2 ± 0.8 kPa

Second part, the molecule after the results:

vapor or sublimation pressure (318.34 K) | vapor or sublimation pressure (346.96 K) | vapor or sublimation pressure (318.35 K) | vapor or sublimation pressure (346.14 K) | vapor or sublimation pressure (347.06 K) | vapor or sublimation pressure (346.97 K) | vapor or sublimation pressure (347.07 K) | SMILES
608.3 ± 2.1 kPa | 1177.5 ± 3.7 kPa | – | – | – | – | – | CC(C)C [2-methylpropane]
– | – | 542.1 ± 1.9 kPa | 1054.9 ± 3.4 kPa | – | – | – | C=C(C)C [2-methylpropene]
